# Experimental data: patent US20120132797A1, “MEANS AND METHODS FOR DIAGNOSING THYROID DISORDERS” (BASF SE, priority 2009, published 2012)
# Tested on: Wistar (Crl:WI(Han)) rats
# Test: Mass spectrometry-based plasma metabolite profiling of rats treated with known inducers of thyroid function impairment
# Type: in vivo, rat
# Details: ratio of group medians vs controls
# Excerpt: At the beginning of the study the animals were 10-11 weeks old. Each dose group in the studies consisted of five rats per sex, and was compared with controls (10 rats per sex). […] The dose levels were chosen to show the typical overt (high dose) and slight (low dose) toxicological symptoms of the substances as described in the literature or in BASF internal study reports.
# Blood samples were withdrawn from the retro-orbital sinus in all rats under isoflurane anesthesia on study days 7, 14 and 28 after a fasting period of 16-20 hours.
# For mass spectrometry-based metabolite profiling analysis, plasma samples were extracted by a proprietary method which delivers a polar and a non-polar fraction. For GC-MS analysis, the non-polar fraction was treated with methanol under acidic conditions to yield the fatty acid methyl esters. Both fractions were further derivatised with Omethyl-hydroxyamine hydrochloride and pyridine to convert oxo groups to Omethyloximes and subsequently with a silylating agent before analysis.
# In LC-MS/MS analysis, both fractions were reconstituted in appropriate solvent mixtures. HPLC was performed by gradient elution on reversed phase separation columns. For mass spectrometric detection metanomics proprietary technology was applied, which allows target and high sensitivity MRM (Multiple Reaction Monitoring) profiling in parallel to a full screen analysis. […] Moreover, several hundred additional analytes giving a fingerprint of the sample were included in the methods.
# Following comprehensive analytical validation steps, the data for each analyte were normalized against data from pool samples. These samples were run in parallel through the whole process to account for process variability.
# The sex- and day-stratified heteroscedastic t-test (“Welch test”) was applied to compare treated groups with respective controls. p-Values and ratios of corresponding group medians were collected as metabolic profiles and fed into a database.
# [1] = male rats, mh7 (study day 7), Table 4
# [2] = male rats, mh14 (study day 14), Table 4
# [3] = male rats, mh28 (study day 28), Table 4
# [4] = female rats, fh7 (study day 7), Table 1
# [5] = female rats, fh14 (study day 14), Table 1
# [6] = female rats, fh28 (study day 28), Table 1
# [7] = male rats, mh7 (study day 7), Table 2
# [8] = male rats, mh14 (study day 14), Table 2
# [9] = male rats, mh28 (study day 28), Table 2
smiles,measurement,setting,value
CCC1(c2ccccc2)C(=O)NC(=O)NC1=O [Phenobarbital sodium],Behenic acid (C22:0),[1],1.03
same,Cholesterol,[1],1.16
same,Citrate,[1],0.89
same,Cytosine,[1],1.06
same,"Galactose, lipid fraction",[1],1.12
same,Glycerol phosphate,[1],1.05
same,Glycine,[1],0.95
same,Lignoceric acid (C24:0),[1],1.21
same,Mannose,[1],1.08
same,Nervonic acid C24:(cis[15]1),[1],1.27
same,"Phospha-tidylcholine (C18:0, 18:2)",[1],1.13
same,"Sphingomyelin (d18:1, C16:0)",[1],1.30
same,Stearic acid (C18:0),[1],0.99
same,Threonic acid,[1],1.86
same,"dihomo-gamma-Linolenic acis (C20:cis[8,11,14]3)",[1],1.06
same,erythro-Sphingosine,[1],1.39
same,myo-Inositol-2-phosphate,[1],1.26
same,threo-Sphingosine,[1],1.39
same,Behenic acid (C22:0),[2],1.11
same,Cholesterol,[2],1.09
same,Citrate,[2],0.93
same,Cytosine,[2],1.07
same,"Galactose, lipid fraction",[2],1.18
same,Glycerol phosphate,[2],1.04
same,Glycine,[2],1.18
same,Lignoceric acid (C24:0),[2],1.18
same,Mannose,[2],1.05
same,Nervonic acid C24:(cis[15]1),[2],1.77
same,"Phospha-tidylcholine (C18:0, 18:2)",[2],1.14
same,"Sphingomyelin (d18:1, C16:0)",[2],1.55
same,Stearic acid (C18:0),[2],1.19
same,Threonic acid,[2],1.95
same,"dihomo-gamma-Linolenic acis (C20:cis[8,11,14]3)",[2],1.03
same,erythro-Sphingosine,[2],1.56
same,myo-Inositol-2-phosphate,[2],1.16
same,threo-Sphingosine,[2],1.61
same,Behenic acid (C22:0),[3],1.21
same,Cholesterol,[3],1.18
same,Citrate,[3],0.96
same,Cytosine,[3],0.98
same,"Galactose, lipid fraction",[3],1.06
same,Glycerol phosphate,[3],1.05
same,Glycine,[3],1.12
same,Lignoceric acid (C24:0),[3],1.25
same,Mannose,[3],1.09
same,Nervonic acid C24:(cis[15]1),[3],1.65
same,"Phospha-tidylcholine (C18:0, 18:2)",[3],1.05
same,"Sphingomyelin (d18:1, C16:0)",[3],1.44
same,Stearic acid (C18:0),[3],1.09
same,Threonic acid,[3],1.88
same,"dihomo-gamma-Linolenic acis (C20:cis[8,11,14]3)",[3],0.96
same,erythro-Sphingosine,[3],1.65
same,myo-Inositol-2-phosphate,[3],1.15
same,threo-Sphingosine,[3],1.50
CCCc1cc(=O)[nH]c(=S)[nH]1 [6-Propyl-2-thiouracil],5-O-Methylsphingosine,[4],1.40
same,Asparagine,[4],1.10
same,Behenic acid (C22:0),[4],1.27
same,Citrate,[4],0.87
same,"Docosahexaenoic acid (C22:cis[4,7,10,13,16]6)",[4],1.25
same,Glycine,[4],1.13
same,Ketoleucine,[4],1.05
same,Lysophosphatidylcholine (C18:2),[4],1.07
same,"Phosphatidylcholine (C16:1, C18:2)",[4],1.49
same,"Phosphatidylcholine (C18:2, C20:4)",[4],1.20
same,Pyruvate,[4],0.91
same,Tricosanoic acid (C23:0),[4],1.45
same,erythro-Sphingosine,[4],1.46
same,threo-Sphingosine,[4],1.24
same,"Sphingomyelin (d18:1, C16:0)","female rats, fh7 (study day 7), Table 1, first listing",1.01
same,"Sphingomyelin (d18:1, C16:0)","female rats, fh7 (study day 7), Table 1, second listing",1.26
same,5-O-Methylsphingosine,[5],1.36
same,Asparagine,[5],1.09
same,Behenic acid (C22:0),[5],1.14
same,Citrate,[5],0.69
same,"Docosahexaenoic acid (C22:cis[4,7,10,13,16]6)",[5],1.14
same,Glycine,[5],1.08
same,Ketoleucine,[5],0.80
same,Lysophosphatidylcholine (C18:2),[5],1.31
same,"Phosphatidylcholine (C16:1, C18:2)",[5],1.37
same,"Phosphatidylcholine (C18:2, C20:4)",[5],1.17
same,Pyruvate,[5],0.65
same,Tricosanoic acid (C23:0),[5],1.30
same,erythro-Sphingosine,[5],1.28
same,threo-Sphingosine,[5],1.29
same,"Sphingomyelin (d18:1, C16:0)","female rats, fh14 (study day 14), Table 1, first listing",1.46
same,"Sphingomyelin (d18:1, C16:0)","female rats, fh14 (study day 14), Table 1, second listing",1.33
same,5-O-Methylsphingosine,[6],1.20
same,Asparagine,[6],0.93
same,Behenic acid (C22:0),[6],1.23
same,Citrate,[6],0.66
same,"Docosahexaenoic acid (C22:cis[4,7,10,13,16]6)",[6],0.84
same,Glycine,[6],1.05
same,Ketoleucine,[6],0.89
same,Lysophosphatidylcholine (C18:2),[6],1.26
same,"Phosphatidylcholine (C16:1, C18:2)",[6],1.09
same,"Phosphatidylcholine (C18:2, C20:4)",[6],1.17
same,Pyruvate,[6],0.73
same,Tricosanoic acid (C23:0),[6],1.36
same,erythro-Sphingosine,[6],1.24
same,threo-Sphingosine,[6],1.34
same,"Sphingomyelin (d18:1, C16:0)","female rats, fh28 (study day 28), Table 1, first listing",1.62
same,"Sphingomyelin (d18:1, C16:0)","female rats, fh28 (study day 28), Table 1, second listing",1.29
same,3-O-Methylsphingosine,[7],1.57
same,5-O-Methylsphingosine,[7],1.50
same,14-Methyl-Pentadecanoic acid,[7],0.98
same,17-Methyloctadecanoic acid,[7],1.10
same,Arginine,[7],1.09
same,Cholesterol,[7],1.42
same,Citrate,[7],0.90
same,"Dihom-gamma-Linolenic acid (C20:cis[8,11,14]3)",[7],1.02
same,Lignoceric acid (C24:0),[7],1.28
same,Phytosphingosine,[7],1.11
same,"Sphingomyelin (d18:1, C16:0)",[7],1.35
same,Tricosanoic acid (C23:0),[7],1.28
same,alpha-Tocopherol,[7],1.20
same,erythro-Sphingosine,[7],1.46
same,threo-Sphingosine,[7],1.33
same,Glutamate,"male rats, mh7 (study day 7), Table 2, first listing",0.78
same,Glutamate,"male rats, mh7 (study day 7), Table 2, second listing",1.03
same,3-O-Methylsphingosine,[8],1.41
same,5-O-Methylsphingosine,[8],1.38
same,14-Methyl-Pentadecanoic acid,[8],0.86
same,17-Methyloctadecanoic acid,[8],0.67
same,Arginine,[8],1.10
same,Cholesterol,[8],0.98
same,Citrate,[8],0.73
same,"Dihom-gamma-Linolenic acid (C20:cis[8,11,14]3)",[8],1.33
same,Lignoceric acid (C24:0),[8],1.12
same,Phytosphingosine,[8],1.07
same,"Sphingomyelin (d18:1, C16:0)",[8],1.35
same,Tricosanoic acid (C23:0),[8],1.10
same,alpha-Tocopherol,[8],1.15
same,erythro-Sphingosine,[8],1.30
same,threo-Sphingosine,[8],1.23
same,Glutamate,"male rats, mh14 (study day 14), Table 2, first listing",0.78
same,Glutamate,"male rats, mh14 (study day 14), Table 2, second listing",0.70
same,3-O-Methylsphingosine,[9],1.90
same,5-O-Methylsphingosine,[9],1.82
same,14-Methyl-Pentadecanoic acid,[9],0.64
same,17-Methyloctadecanoic acid,[9],0.70
same,Arginine,[9],1.35
same,Cholesterol,[9],1.23
same,Citrate,[9],0.64
same,"Dihom-gamma-Linolenic acid (C20:cis[8,11,14]3)",[9],1.50
same,Lignoceric acid (C24:0),[9],1.16
same,Phytosphingosine,[9],1.20
same,"Sphingomyelin (d18:1, C16:0)",[9],1.71
same,Tricosanoic acid (C23:0),[9],1.55
same,alpha-Tocopherol,[9],1.12
same,erythro-Sphingosine,[9],1.47
same,threo-Sphingosine,[9],1.52
same,Glutamate,"male rats, mh28 (study day 28), Table 2, first listing",0.65
same,Glutamate,"male rats, mh28 (study day 28), Table 2, second listing",0.49
